Measured values from patent US4183848A, “Analgesic polypeptide” (American Home Products Corporation, priority 1977, dated 1980).
Where a SMILES comes first, the peptide text is derived from it. [ ]: non-standard residue; d: D form. Aib = CC(C)(N)C(=O)O

Tests used:
[1] = system: rats; details: injection in the brain ventricle in rats; fully reversible by naloxone; cited from earlier work
[2] = peripheral administration; cited from earlier work
[3] = system: mouse vas deferens; details: cited from earlier work
[4] = system: guinea pig ileum; details: cited from earlier work
[5] = system: opiate receptor; details: brain homogenates; cited from earlier work
[6] = system: rat tail flick test; experiment: rat tail flick test (method of D-Amour and Smith), analgesic activity; format: in vivo
Text: The representative polypeptide of this invention Tyr-D-Ala-Gly-Phe-2-MeAla-NH2, gave the following results in the reference standard rat tail flick test: […]

[7] = intracerebroventricular administration; cited from earlier work

## H-Tyr-Gly-Gly-Phe-Leu-OH [leucine-enkephalin]
[1]
  analgesia: profound analgesia
[2]
  activity when administered peripherally: inactive
[3]
  block of electrically evoked contractions: mimic the ability of morphine to block electrically evoked contractions
[4]
  block of electrically evoked contractions: mimic the ability of morphine to block electrically evoked contractions
[5]
  inhibition of stereospecific receptor binding of 3H-naloxone: inhibit

## H-Tyr-Gly-Gly-Phe-Met-OH [methionine-enkephalin]
[1]
  analgesia: profound analgesia
[2]
  activity when administered peripherally: inactive
[3]
  block of electrically evoked contractions: mimic the ability of morphine to block electrically evoked contractions
[4]
  block of electrically evoked contractions: mimic the ability of morphine to block electrically evoked contractions
[5]
  inhibition of stereospecific receptor binding of 3H-naloxone: inhibit

## CC(=O)O.C[C@@H](NC(=O)[C@@H](N)Cc1ccc(O)cc1)C(=O)NCC(=O)N[C@@H](Cc1ccccc1)C(=O)NC(C)(C)C(N)=O [Tyr-D-Ala-Gly-Phe-2-MeAla-NH2, L-Tyrosyl-D-Alanylglycyl-L-Phenylalanyl-2-Methylalaninamide acetate] (H-Y[dA]GF[Aib]-NH2)
[6]; intravenous 1.0 milligram/kilogram, 15 minutes after administration
  No. showing analgesia/No. tested: 6/6
[6]; intravenous 1.0 milligram/kilogram, 30 minutes after administration
  No. showing analgesia/No. tested: 4/6
[6]; intravenous 1.0 milligram/kilogram, 60 minutes after administration
  No. showing analgesia/No. tested: 3/6
[6]; intravenous 2.5 milligram/kilogram, 15 minutes after administration
  No. showing analgesia/No. tested: 5/6
[6]; intravenous 2.5 milligram/kilogram, 30 minutes after administration
  No. showing analgesia/No. tested: 5/6
[6]; intravenous 2.5 milligram/kilogram, 60 minutes after administration
  No. showing analgesia/No. tested: 2/6
[6]; intravenous 5.0 milligram/kilogram, 15 minutes after administration
  No. showing analgesia/No. tested: 5/5
[6]; intravenous 5.0 milligram/kilogram, 30 minutes after administration
  No. showing analgesia/No. tested: 4/5
[6]; intravenous 5.0 milligram/kilogram, 60 minutes after administration
  No. showing analgesia/No. tested: 2/5
[6]; intravenous .5 milligram/kilogram, 15 minutes after administration
  No. showing analgesia/No. tested: 0/6
[6]; intravenous .5 milligram/kilogram, 30 minutes after administration
  No. showing analgesia/No. tested: 1/6
[6]; intravenous .5 milligram/kilogram, 60 minutes after administration
  No. showing analgesia/No. tested: 1/6
[6]; subcutaneous 5.0 milligram/kilogram, 30 minutes after administration
  No. showing analgesia/No. tested: 3/6
[6]; subcutaneous 5.0 milligram/kilogram, 60 minutes after administration
  No. showing analgesia/No. tested: 1/6
[6]; subcutaneous 5.0 milligram/kilogram, 90 minutes after administration
  No. showing analgesia/No. tested: 2/6
[6]; subcutaneous 5.0 milligram/kilogram, 120 minutes after administration
  No. showing analgesia/No. tested: 0/6
[6]; subcutaneous 10.0 milligram/kilogram, 30 minutes after administration
  No. showing analgesia/No. tested: 6/6
[6]; subcutaneous 10.0 milligram/kilogram, 60 minutes after administration
  No. showing analgesia/No. tested: 5/6
[6]; subcutaneous 10.0 milligram/kilogram, 90 minutes after administration
  No. showing analgesia/No. tested: 2/6
[6]; subcutaneous 10.0 milligram/kilogram, 120 minutes after administration
  No. showing analgesia/No. tested: 1/6

## Tyr-D-Ala-Gly-Phe-D-Leu
[7]
  activity when administered intracerebroventricularly: activity
